The values that follow come from PMC9855133, “Ligand Binding Properties of Odorant-Binding Protein OBP5 from Mus musculus” (Biology, 2022).

Data set [1] has as its target T1, mOBP5 (Mus musculus, UniProt Q9D3H2).
T1 construct: composed of an N-terminal His6-tag, followed by mOBP5 (Ala17-Glu163); made in house; host or cells: E. coli M15 [pREP4]
T1 sequence (Q9D3H2 17-163): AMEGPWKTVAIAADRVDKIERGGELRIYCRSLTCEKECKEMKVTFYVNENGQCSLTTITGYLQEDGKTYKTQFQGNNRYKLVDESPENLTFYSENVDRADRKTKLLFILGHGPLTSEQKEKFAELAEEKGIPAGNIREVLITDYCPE
In words: Fluorescence titration of mOBP5 with the probe NPN. The class given is binding. As to conditions: 2 µM mOBP5, 50 mM sodium phosphate pH 7.5, 20 °C, excitation 337 nm; read-out: dissociation constant (Kd) of NPN. Here is the method: (§1) Competitive ligand binding experiments were performed using N-phenyl-1-naphthylamine (NPN) as a fluorescent probe as previously described. All measurements were conducted at 20 °C using a Cary Eclipse spectrofluorimeter (Agilent Technologies, Santa Clara, CA, United States) equipped with a Peltier temperature-control unit with a 1 cm light path, quartz cuvette, and 5 nm slits for both excitation and emission. […] The excitation wavelength of NPN was 337 nm, and the fluorescence emission was recorded between 350 and 600 nm. The value of the dissociation constant (Kd) NPN was calculated using SigmaPlot 12.5 software (Systat Software, Inc., San Jose, CA, USA), as previously described.

Data set [2] has as its target T1, mOBP5. In words: Competitive fluorescence binding assay (displacement of NPN from mOBP5). As to conditions: for IC50 / Kd: 2 μM mOBP5, 10 μM NPN; for IC50: 20 °C, for very weak ligands an arbitrary value of 200 μM was assigned, read-out: IC50 (µM) Fluo: concentration of competitor ligand causing a decrease of NPN fluorescence of half-maximal intensity; for Kd: calculated as Kd = [IC50]/(1 + [L]/Kd NPN), average of three experiments, read-out: Kd (µM) Fluo: dissociation constant determined by fluorescence; for fluorescence intensity of the mOBP5-NPN complex in the presence of odorant: competitive curves, Figure 3C. Here is the method:
as §1
Competitive binding assays were carried out with 2 μM mOBP5 incubated with 10 μM NPN, as previously described. After the addition of the competitor compound and the stabilization of the signal (3–4 min), the fluorescence spectrum was recorded. The IC50 value is the concentration of odorant, which causes a fluorescence decrease in half-maximal intensity. The IC50 values were calculated using SigmaPlot software. Dissociation constants (Kd) for odorant competitors were calculated as Kd = [IC50]/(1 + [L]/Kd NPN), with [L] being the free fluorophore concentration and Kd being the OBP-fluorophore complex dissociation constant. The reported Kd values are the average of three measurements performed in three independent experiments.

Data set [3] deals with T1, mOBP5. In words: Isothermal titration microcalorimetry (ITC). Type of data set: binding. As to conditions: 25 °C, 25 μM mOBP5, 250 μM odorant, phosphate buffer pH 7.5; for Ka (ITC): association constant determined by ITC: in M-1 (unit assumed); for Kd: read-out: Kd (µM) ITC: dissociation constant determined by ITC (1/Ka). The method, then: Isothermal titration microcalorimetry (ITC) experiments were carried out at 25 °C with a VP-ITC microcalorimeter (Malvern Panalytical, Palaiseau, France) as previously described. Before initiating the titration run, mOBP5 solutions (25 μM in 50 mM phosphate buffer, pH 7.5) were thoroughly degassed under vacuum. Ligand solutions (250 μM in 50 mM phosphate buffer, pH 7.5) were injected into one 3 µL aliquot, then 26 successive 10 μL aliquots. The duration of each injection was 20 s with a 210 s recovery time between injections. Heats of dilution determined in the absence of mOBP5 were subtracted from the titration data prior to curve fitting. Thermodynamic parameters were obtained by fitting the values to a single site binding model through nonlinear regression using Microcal Origin® software.

Data set [4] deals with the molecule itself. In words: SEC; calibrated Superdex 75 10/300 GL, room temperature, 100 mM potassium phosphate, 150 mM NaCl, pH 7.5, 1 mL/min; purified mOBP5 at 0.5 mg/mL. (SEC sorts molecules by how far they enter the pores of the column.)

For the molecule `c1ccc(Nc2cccc3ccccc23)cc1` [NPN, N-phenyl-1-naphthylamine], the Kd on mOBP5 [1] was found to be 3330 ± 170 nM.
With `CC1=CCC2CC1C2(C)C` (stereo not drawn) [α-pinene], on mOBP5 [2], the IC50 worked out at 0.9 µM, the Kd was 0.24 µM and the “fluorescence intensity of the mOBP5-NPN complex in the presence of odorant” value (“fluorescence intensity” below) is listed as “drastically reduced”.
In the case of `COc1ccc(C=O)cc1` [4-methoxy-benzaldehyde], the IC50 at mOBP5 [2] is 40 µM.
Take `C=C(C)C1CC=C(C)C(=O)C1` (single isomer, unassigned; (-)) [(-)-carvone]: at mOBP5 [2], the IC50 was determined as 1.1 µM, the Kd was 0.28 µM and the “fluorescence intensity” value was “drastically reduced”.
For `Cc1ccc(C(C)C)c(O)c1` [thymol], the IC50 on mOBP5 [2] came out at 40 µM.
With `CC(C)[C@@H]1CC[C@@H](C)CC1=O` [menthone], on mOBP5 [2], the IC50 was found to be 0.8 µM, the Kd was 0.23 µM and the “fluorescence intensity” value is reported as “drastically reduced”. On mOBP5 [3], the “N ITC: binding stoichiometry per monomer determined by ITC” value (from here on “N ITC: binding stoichiometry per monomer”) was found to be 0.58, the “Ka (ITC): association constant determined by ITC” value (“Ka (ITC): association constant” below) was 1.8E+07 and the Kd is 0.055 µM.
With `CC12CCC(CC1=O)C2(C)C` (stereo not drawn) [camphor], at mOBP5 [2], the IC50 was found to be 10.4 µM and the Kd is 1.6 µM.
Turning to `CC1CCC(C(C)C)C(O)C1` (stereo not drawn) [menthol], on mOBP5 [2], the IC50 was 1.5 µM, the Kd is 0.38 µM and the “fluorescence intensity” value is recorded as “drastically reduced”.
As to `CCCCCCO` [1-hexanol], at mOBP5 [2], the IC50 is 40 µM.
Consider `CCCCCCC1CCC(=O)O1` (stereo not drawn) [γ-decalactone], for which, on mOBP5 [2], the IC50 turned out to be 2.4 µM and the Kd is 0.58 µM.
Turning to `C=CC(C)(O)CCC=C(C)C` (stereo not drawn) [linalool], on mOBP5 [2], the IC50 was 1.1 µM, the Kd was 0.3 µM and the “fluorescence intensity” value was “drastically reduced”.
As to `COc1nccnc1CC(C)C` [3-iso-butyl-2-methoxy-pyrazine], on mOBP5 [2], the IC50 amounted to 7.2 µM and the Kd was 1.3 µM.
For `CCCC(=O)OCC` [ethyl butyrate], the IC50 on mOBP5 [2] was found to be 40 µM.
Turning to `CCCCCCCCO` [1-octanol], on mOBP5 [2], the IC50 amounted to 1.1 µM, the Kd was 0.29 µM and the “fluorescence intensity” value is on record as “drastically reduced”. Also, on mOBP5 [3], the “N ITC: binding stoichiometry per monomer” value came out at 0.71, the “Ka (ITC): association constant” value is 3.6E+07 and the Kd was determined as 0.028 µM.
`CC(C)=CCC/C(C)=C/CO` [geraniol]: at mOBP5 [2], the IC50 is 0.7 µM, the Kd was 0.19 µM and the “fluorescence intensity” value is listed as “drastically reduced”. Moreover, at mOBP5 [3], the “N ITC: binding stoichiometry per monomer” value stood at 0.71, the “Ka (ITC): association constant” value was found to be 2.5E+07 and the Kd is 0.04 µM.
For `CC(=O)OCCC(C)C` [isoamyl acetate], on mOBP5 [2], the IC50 was 2.5 µM and the Kd is 0.6 µM. Besides, at mOBP5 [3], the “N ITC: binding stoichiometry per monomer” value worked out at 0.87, the “Ka (ITC): association constant” value is 8.6E+06 and the Kd amounted to 0.116 µM.
For the molecule `CC12CCC(CC1)C(C)(C)O2` [cineole], the IC50 on mOBP5 [2] is 40 µM.
In the case of `CC(C=O)Cc1ccc(C(C)(C)C)cc1` (stereo not drawn) [lilialdehyde], at mOBP5 [2], the IC50 amounted to 1.4 µM, the Kd is 0.38 µM and the “fluorescence intensity” value is given as “drastically reduced”.
With `CC(C)=CCCC(C)=CC=O` (mixture of isomers) [citral], on mOBP5 [2], the IC50 is 2.5 µM and the Kd is 0.61 µM. On mOBP5 [3], the “N ITC: binding stoichiometry per monomer” value came out at 0.65, the “Ka (ITC): association constant” value is on record as 1.3E+07 and the Kd worked out at 0.076 µM.
Regarding `CCCCCCCCC(C)=O` [2-decanone], on mOBP5 [2], the IC50 turned out to be 1.2 µM, the Kd is 0.31 µM and the “fluorescence intensity” value is on record as “drastically reduced”.
As for `C=C(C)[C@H]1CC=C(C)C(=O)C1` [(+)-carvone], on mOBP5 [2], the IC50 was 1 µM, the Kd was 0.28 µM and the “fluorescence intensity” value is given as “drastically reduced”. Further, at mOBP5 [3], the “N ITC: binding stoichiometry per monomer” value stood at 0.47, the “Ka (ITC): association constant” value is reported as 8.7E+06 and the Kd was found to be 0.115 µM.
With `CC(=O)/C=C/C1=C(C)CCCC1(C)C` [β-ionone], on mOBP5 [2], the IC50 is 3 µM and the Kd is 0.71 µM.
For the molecule `CCCCCCCC=O` [octanal], on mOBP5 [2], the IC50 is 1.3 µM, the Kd is 0.34 µM and the “fluorescence intensity” value is reported as “drastically reduced”.
For the molecule `CCCCCCCO` [1-heptanol], at mOBP5 [2], the IC50 was 2.4 µM and the Kd is 0.59 µM.

B1: Mus musculus odorant-binding protein OBP5 (mOBP5), recombinant His6-tagged (natural protein, UniProt Q9D3H2 17-163, looked up)
chain: AMEGPWKTVAIAADRVDKIERGGELRIYCRSLTCEKECKEMKVTFYVNENGQCSLTTITGYLQEDGKTYKTQFQGNNRYKLVDESPENLTFYSENVDRADRKTKLLFILGHGPLTSEQKEKFAELAEEKGIPAGNIREVLITDYCPE
notes: Expressed from pQE31 (BamHI/HindIII); also called mOBP1a; source: E. coli M15 [pREP4], purified (HisTrap Ni2+-chelating column, dialysis); not shown: His6, N-terminal, kept
For orientation: stoichiometry N means a count of units in the complex or per binding partner. For B1, the “stoichiometry N” value in data set [4] is 2.
